Series [1] addresses T1, plasma protein (HSA column) (Homo sapiens, UniProt P02768).
T1 construct: purchased
Put plainly: Plasma protein binding estimated by HPLC on a […] HSA column. The format is in vitro ADME. To be noted: CHIRALPAK HSA column (50 × 3 mm, 5 μm), estimated by an HPLC-based method, read-out: PPB (plasma protein binding) (converted). As for the experimental part:
Plasma protein binding (% PPB) was estimated by correlating the logarithmic retention times of the analytes on a […] HSA 50 × 3 mm, 5 μm column with the literature-known % PPB values (converted into log K values) of the following drugs: warfarin, ketoprofen, budesonide, nizatidine, indomethacin, acetylsalicylic acid, carbamazepine, piroxicam, nicardipine, and cimetidine (for details, see Valko et al.).[67] The samples were dissolved in MeCN/DMSO 9:1 to achieve a final concentration of 0.5 mg/mL. Mobile phase A was 50 mM ammonium acetate adjusted to pH 7.4 with ammonia solution, while mobile phase B was iPrOH. The flow rate was set to 1.0 mL/min, the UV detector was set to 254 nm, and the column temperature was kept at 30 °C. After injecting 2 μL of the sample, a linear gradient from 100% A to 30% iPrOH in 5.4 min was applied. From 5.4 to 18 min, 30% iPrOH was kept, followed by switching back to 100% A in 1.0 min and a re-equilibration time of 6 min. With the aid of the calibration line (R^2 = 0.96), the log K values of new substances were calculated and converted to their % PPB values.

Series [2] can be described thus: Log D7.4 measurement by chromatographic (fast-gradient HPLC) method. The settings on record: for chromatographic logD: pH 7.4.
Description: The system was calibrated by plotting the retention times of six different drugs (atenolol, metoprolol, labetalol, diltiazem, triphenylene, and permethrin) versus their literature-known log D7.4 in a calibration line (R^2 = 0.99). Subsequently, the mean retention times of the analytes were taken to calculate their log D7.4 values with the aid of the calibration line. At least two independent measurements of each analyte were performed.
The target of a further series is XIAP (Homo sapiens, UniProt P98170). As to the kind of experiment: Immunoblotting (western blot) quantification of XIAP levels in MM.1S cells. To be noted: for remaining activity at 0.1 µM: MM1.S, 16 h.
Chain of XIAP (P98170 whole entry): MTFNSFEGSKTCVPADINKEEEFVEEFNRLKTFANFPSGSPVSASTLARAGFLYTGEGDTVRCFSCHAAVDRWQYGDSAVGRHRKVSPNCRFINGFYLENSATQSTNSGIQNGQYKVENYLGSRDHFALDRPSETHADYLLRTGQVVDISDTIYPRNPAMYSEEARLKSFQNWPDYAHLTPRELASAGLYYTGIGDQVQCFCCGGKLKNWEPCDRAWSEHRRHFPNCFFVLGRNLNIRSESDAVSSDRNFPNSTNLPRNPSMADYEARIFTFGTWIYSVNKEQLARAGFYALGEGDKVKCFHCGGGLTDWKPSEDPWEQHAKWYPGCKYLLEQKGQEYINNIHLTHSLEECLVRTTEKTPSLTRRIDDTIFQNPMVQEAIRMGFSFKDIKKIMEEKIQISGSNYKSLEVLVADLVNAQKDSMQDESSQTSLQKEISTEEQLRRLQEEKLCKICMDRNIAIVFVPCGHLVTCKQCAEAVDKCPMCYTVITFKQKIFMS
A further series addresses cIAP1 (Homo sapiens, UniProt Q13490). Put plainly: Immunoblotting (western blot) quantification of cIAP1 levels in MM.1S cells. The settings on record: for remaining activity at 0.1 µM: MM1.S, 16 h.
For a further series, the target named is cIAP2 (Homo sapiens, UniProt Q13489). As to the kind of experiment: Immunoblotting (western blot) quantification of cIAP2 levels in MM.1S cells. To be noted: for remaining activity at 0.1 µM: MM1.S.
Chain of cIAP2 (Q13489 whole entry): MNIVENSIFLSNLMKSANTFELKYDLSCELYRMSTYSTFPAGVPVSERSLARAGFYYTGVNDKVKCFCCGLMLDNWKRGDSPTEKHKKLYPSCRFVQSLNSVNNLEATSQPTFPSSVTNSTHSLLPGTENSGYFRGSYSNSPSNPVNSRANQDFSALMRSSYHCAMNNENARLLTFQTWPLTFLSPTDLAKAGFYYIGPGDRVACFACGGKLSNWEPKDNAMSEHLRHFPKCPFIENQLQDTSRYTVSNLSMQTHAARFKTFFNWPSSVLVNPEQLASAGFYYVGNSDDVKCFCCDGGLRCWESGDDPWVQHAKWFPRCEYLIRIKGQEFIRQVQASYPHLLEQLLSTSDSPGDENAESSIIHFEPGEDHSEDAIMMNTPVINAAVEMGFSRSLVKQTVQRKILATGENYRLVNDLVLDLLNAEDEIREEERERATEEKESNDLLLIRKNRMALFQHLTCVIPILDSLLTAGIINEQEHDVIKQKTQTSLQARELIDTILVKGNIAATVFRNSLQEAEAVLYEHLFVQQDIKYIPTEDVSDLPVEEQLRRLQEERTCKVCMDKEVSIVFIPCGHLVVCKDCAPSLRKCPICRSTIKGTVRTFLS
The target of the next series is VHL30 (Homo sapiens, UniProt P40337). Put plainly: Immunoblotting (western blot) quantification of VHL30 levels in MM.1S cells. The settings on record: MM1.S, 16 h, read-out: %remaining protein VHL30.
Chain of VHL30 (P40337 whole entry): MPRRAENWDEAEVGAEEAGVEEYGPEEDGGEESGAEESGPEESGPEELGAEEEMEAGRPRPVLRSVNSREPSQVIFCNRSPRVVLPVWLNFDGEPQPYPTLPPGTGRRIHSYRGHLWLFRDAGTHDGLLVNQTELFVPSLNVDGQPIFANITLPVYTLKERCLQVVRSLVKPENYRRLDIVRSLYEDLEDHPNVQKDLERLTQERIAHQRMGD
Another series addresses CRBN (Homo sapiens, UniProt Q96SW2). Put plainly: Immunoblotting (western blot) quantification of CRBN levels in MM.1S cells. The settings on record: for remaining activity at 0.1 µM: MM1.S, 16 h, read-out: %remaining protein CRBN.
In the next series the test system is IKZF3. Put plainly: Immunoblotting (western blot) quantification of IKZF3 levels in MM.1S cells. To be noted: for %remaining protein IKZF3: 16 h treatment at 0.1 μM, normalized to loading control and DMSO.
For series [3], the system named is IAPs (cIAP1, cIAP2, XIAP). As to the kind of experiment: Immunoblotting of IAPs in MM.1S cells, overall degradation profile, time course and washout. The format is cell-based. To be noted: 16 h, western blot, concentration (10 nM to 1 μM). How it is done: Next, we examined the persistence of IAP degradation in MM.1S cells after a single exposure to 1 μM of 9 and subsequent removal of the compound. […] The reliance on CRL2^VHL was assessed with a neddylation inhibitor MLN4924, which blocks the activity of CRLs (Figure S13A).

Setting [4] is: read-out: %remaining protein XIAP.
The mark [5] stands for this setting: read-out: %remaining protein cIAP1.
[6] abbreviates: 16 h, read-out: %remaining protein cIAP2.
Setting [7] is: read-out: %remaining protein XIAP, MM.1S cells, 16 h treatment at 0.1 μM, normalized to loading control and DMSO.
[8] abbreviates: read-out: %remaining protein cIAP1, MM.1S cells, 16 h treatment at 0.1 μM, normalized to loading control and DMSO.
Setting [9] is: 16 h, read-out: %remaining protein cIAP2, MM.1S cells, 16 h treatment at 0.1 μM, normalized to loading control and DMSO.
The mark [10] stands for this setting: MM.1S cells, 16 h treatment at 0.1 μM, normalized to loading control and DMSO.

The source of these data is publication PMC10108347, “Heterobifunctional Ligase Recruiters Enable pan-Degradation of Inhibitor of Apoptosis Proteins” (Journal of Medicinal Chemistry, 2023).

Like-named read-outs stand apart in the source and are kept apart here.

Chain of cIAP1 (Q13490 whole entry): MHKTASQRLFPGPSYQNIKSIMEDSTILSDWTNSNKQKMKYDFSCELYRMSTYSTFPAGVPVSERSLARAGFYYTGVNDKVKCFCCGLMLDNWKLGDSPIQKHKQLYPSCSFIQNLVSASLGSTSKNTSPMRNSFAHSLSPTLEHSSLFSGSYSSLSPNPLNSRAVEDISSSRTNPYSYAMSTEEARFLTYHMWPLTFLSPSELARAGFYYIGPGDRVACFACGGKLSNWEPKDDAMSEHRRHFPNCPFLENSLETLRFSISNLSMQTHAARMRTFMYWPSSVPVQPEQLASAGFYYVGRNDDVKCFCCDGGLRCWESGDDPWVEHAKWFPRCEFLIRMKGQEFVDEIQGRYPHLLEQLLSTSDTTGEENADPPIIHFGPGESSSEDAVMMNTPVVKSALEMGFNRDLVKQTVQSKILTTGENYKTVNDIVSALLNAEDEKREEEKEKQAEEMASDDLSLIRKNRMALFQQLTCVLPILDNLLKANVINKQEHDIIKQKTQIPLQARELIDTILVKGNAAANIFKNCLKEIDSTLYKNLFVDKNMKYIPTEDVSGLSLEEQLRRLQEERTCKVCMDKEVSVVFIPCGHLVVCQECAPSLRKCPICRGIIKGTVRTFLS
T1 sequence (P02768 25-609): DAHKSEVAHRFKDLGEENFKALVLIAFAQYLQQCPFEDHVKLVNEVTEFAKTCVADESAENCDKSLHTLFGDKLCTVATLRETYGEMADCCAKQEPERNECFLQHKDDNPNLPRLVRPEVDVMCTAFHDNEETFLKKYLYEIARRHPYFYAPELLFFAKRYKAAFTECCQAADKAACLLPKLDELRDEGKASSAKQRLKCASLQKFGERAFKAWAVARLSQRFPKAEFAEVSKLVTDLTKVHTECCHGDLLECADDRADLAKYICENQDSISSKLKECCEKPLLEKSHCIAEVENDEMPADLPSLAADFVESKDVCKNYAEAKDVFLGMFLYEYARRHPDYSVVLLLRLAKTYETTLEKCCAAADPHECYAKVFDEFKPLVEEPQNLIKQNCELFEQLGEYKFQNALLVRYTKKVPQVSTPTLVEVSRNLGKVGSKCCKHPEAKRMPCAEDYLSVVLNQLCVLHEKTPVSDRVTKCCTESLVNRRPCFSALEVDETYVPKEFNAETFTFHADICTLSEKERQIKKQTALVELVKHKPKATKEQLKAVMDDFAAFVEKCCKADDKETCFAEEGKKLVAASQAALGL
Chain of CRBN (Q96SW2 whole entry): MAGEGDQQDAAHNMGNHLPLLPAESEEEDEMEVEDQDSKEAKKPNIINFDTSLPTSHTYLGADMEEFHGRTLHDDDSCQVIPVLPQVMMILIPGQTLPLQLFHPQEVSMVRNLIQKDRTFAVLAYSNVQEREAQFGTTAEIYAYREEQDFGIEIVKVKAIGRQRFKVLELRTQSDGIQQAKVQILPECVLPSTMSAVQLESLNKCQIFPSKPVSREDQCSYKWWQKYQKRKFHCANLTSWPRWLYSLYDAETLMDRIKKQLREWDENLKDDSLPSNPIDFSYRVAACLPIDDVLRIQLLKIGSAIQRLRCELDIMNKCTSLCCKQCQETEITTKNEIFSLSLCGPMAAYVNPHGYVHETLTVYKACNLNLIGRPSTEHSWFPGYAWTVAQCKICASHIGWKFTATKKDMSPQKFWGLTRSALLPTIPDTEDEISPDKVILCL
Description for CRBN: (§1) To evaluate the capability of our panel of hetero-PROTACs for E3 ligase degradation, VHL19, VHL30, CRBN, cIAP1, cIAP2, and XIAP levels were quantified by western blot analyses. […] SDS-PAGE was performed, and proteins were then transferred onto PVDF membranes. Blotted membranes were blocked with 5% milk in Tris-buffered saline/Tween20 (TBST). Primary antibodies were diluted in 5% BSA in TBST, and incubations were performed overnight at 4 °C. Secondary HRP-conjugated antibodies diluted in 5% milk were incubated for 1 h at room temperature. Detection of proteins on PVDF was carried out using the WesternBright ECL HRP substrate or the WesternBright Sirius HRP substrate (Advansta, San Jose, USA) and imaged with LAS 4000× (Fujifilm). Membranes were subjected to 10 min incubation with Restore Western Blot Stripping Buffer (Thermo Fisher Scientific, Waltham, USA), followed by TBST washes. After brief re-activation with methanol, the membranes were blocked, and further probing of proteins was carried out.
(§2) Quantification of blots was performed using ImageJ software (National Institutes of Health).
Description for IKZF3: as §1, §2
Description for VHL30: as §1, §2

Take `CN[C@@H](C)C(=O)N[C@H](C(=O)N1C[C@@H](Oc2cccc(OCCOCCOCCOc3cc(-c4scnc4C)ccc3CNC(=O)[C@@H]3C[C@@H](O)CN3C(=O)[C@H](C(C)C)N3Cc4ccccc4C3=O)c2)C[C@H]1C(=O)N[C@@H]1CCCc2ccccc21)C1CCCCC1` [PROTAC 15, (2S,4S)-1-((S)-2-Cyclohexyl-2-((S)-2-(methylamino)propanamido)acetyl)-4-(3-(2-(2-(2-(2-(((2S,4R)-4-hydroxy-1-((S)-3-methyl-2-(1-oxoisoindolin-2-yl)butanoyl)pyrrolidine-2-carboxamido)methyl)-5-(4-methylthiazol-5-yl)phenoxy)ethoxy)ethoxy)ethoxy)phenoxy)-N-((R)-1,2,3,4-tetrahydronaphthalen-1-yl)pyrrolidine-2-carboxamide]: in series [1], the fraction unbound at 0.5 mg/mL is 0.05. Also, in series [2], the chromatographic logD was determined as 3.4. Besides, the remaining activity at 0.1 µM at XIAP (setting [4]) worked out at 3%; at cIAP1 (setting [5]), 3%; at cIAP2 (setting [6]), 32%; at VHL30 it was 51%.
`CN[C@@H](C)C(=O)N[C@H](C(=O)N1C[C@@H](Oc2cccc(OCCOCCOCCOCCOc3cc(-c4scnc4C)ccc3CNC(=O)[C@@H]3C[C@@H](O)CN3C(=O)[C@H](C(C)C)N3Cc4ccccc4C3=O)c2)C[C@H]1C(=O)N[C@@H]1CCCc2ccccc21)C1CCCCC1` [PROTAC 16, (2S,4S)-1-((S)-2-Cyclohexyl-2-((S)-2-(methylamino)propanamido)acetyl)-4-(3-(2-(2-(2-(2-(2-(((2S,4R)-4-hydroxy-1-((S)-3-methyl-2-(1-oxoisoindolin-2-yl)butanoyl)pyrrolidine-2-carboxamido)methyl)-5-(4-methylthiazol-5-yl)phenoxy)ethoxy)ethoxy)ethoxy)ethoxy)phenoxy)-N-((R)-1,2,3,4-tetrahydronaphthalen-1-yl)pyrrolidine-2-carboxamide]: the fraction unbound at 0.5 mg/mL in series [1] is 0.05. The same compound yielded a chromatographic logD in [2] of 3.3. In addition, the remaining activity at 0.1 µM at XIAP (setting [4]) stood at 2%; on cIAP1 (setting [5]) it was 3%; on cIAP2 (setting [6]), 31%; at VHL30, 41%.
`CN[C@@H](C)C(=O)N[C@H](C(=O)N1C[C@@H](Oc2cccc(OCCCCCCOCCCCCCOCCOc3cc(-c4scnc4C)ccc3CNC(=O)[C@@H]3C[C@@H](O)CN3C(=O)[C@H](C(C)C)N3Cc4ccccc4C3=O)c2)C[C@H]1C(=O)N[C@@H]1CCCc2ccccc21)C1CCCCC1` [PROTAC 17, (2S,4S)-1-((S)-2-Cyclohexyl-2-((S)-2-(methylamino)propanamido)acetyl)-4-(3-((6-((6-(2-(2-(((2S,4R)-4-hydroxy-1-((S)-3-methyl-2-(1-oxoisoindolin-2-yl)butanoyl)pyrrolidine-2-carboxamido)methyl)-5-(4-methylthiazol-5-yl)phenoxy)ethoxy)hexyl)oxy)hexyl)oxy)phenoxy)-N-((R)-1,2,3,4-tetrahydronaphthalen-1-yl)pyrrolidine-2-carboxamide]: in series [1], the fraction unbound at 0.5 mg/mL is 0.03. The chromatographic logD in series [2] came out at 5.2. Besides, the remaining activity at 0.1 µM at XIAP (setting [4]) was 1%; on cIAP1 (setting [5]), 3%; on cIAP2 (setting [6]) it was 31%; at VHL30, 81%.
Consider `CN[C@@H](C)C(=O)N[C@H](C(=O)N1C[C@@H](Oc2cccc(OCCCCCNc3cccc4c3C(=O)N(C3CCC(=O)NC3=O)C4=O)c2)C[C@H]1C(=O)N[C@@H]1CCCc2ccccc21)C1CCCCC1` (stereo partly drawn) [PROTAC 20, (2S,4S)-1-((S)-2-Cyclohexyl-2-((S)-2-(methylamino)propanamido)acetyl)-4-(3-((5-((2-(2,6-dioxopiperidin-3-yl)-1,3-dioxoisoindolin-4-yl)amino)pentyl)oxy)phenoxy)-N-((R)-1,2,3,4-tetrahydronaphthalen-1-yl)pyrrolidine-2-carboxamide], for which the fraction unbound at 0.5 mg/mL in series [1] was 0.04. Further, the chromatographic logD in series [2] was 4.6. Moreover, the remaining activity at 0.1 µM on XIAP (setting [7]) was found to be 8%; on CRBN it was 95%; at cIAP1 (setting [8]), 6%; on cIAP2 (setting [9]), 34%. In addition, the “%remaining protein IKZF3” value in the series on IKZF3 stood at 89%.
For `CN[C@@H](C)C(=O)N[C@H](C(=O)N1C[C@@H](Oc2cccc(OCCOCCOCCNc3cccc4c3C(=O)N(C3CCC(=O)NC3=O)C4=O)c2)C[C@H]1C(=O)N[C@@H]1CCCc2ccccc21)C1CCCCC1` (stereo partly drawn) [PROTAC 23, (2S,4S)-1-((S)-2-Cyclohexyl-2-((S)-2-(methylamino)propanamido)acetyl)-4-(3-(2-(2-(2-((2-(2,6-dioxopiperidin-3-yl)-1,3-dioxoisoindolin-4-yl)amino)ethoxy)ethoxy)ethoxy)phenoxy)-N-((R)-1,2,3,4-tetrahydronaphthalen-1-yl)pyrrolidine-2-carboxamide], in series [1], the fraction unbound at 0.5 mg/mL was 0.05. Besides, the chromatographic logD in [2] came out at 3.9. The remaining activity at 0.1 µM at XIAP (setting [7]) came to 3%; on CRBN, 85%; at cIAP1 (setting [8]), 4%; on cIAP2 (setting [9]), 11%. Moreover, the “%remaining protein IKZF3” value with IKZF3 was 95%.
`CN[C@@H](C)C(=O)N[C@H](C(=O)N1C[C@@H](Oc2cccc(OCCCCCOCCCCCOCCCCCCNc3cccc4c3C(=O)N(C3CCC(=O)NC3=O)C4=O)c2)C[C@H]1C(=O)N[C@@H]1CCCc2ccccc21)C1CCCCC1` (stereo partly drawn) [PROTAC 26, (2S,4S)-1-((S)-2-Cyclohexyl-2-((S)-2-(methylamino)propanamido)acetyl)-4-(3-((5-((5-((6-((2-(2,6-dioxopiperidin-3-yl)-1,3-dioxoisoindolin-4-yl)amino)hexyl)oxy)pentyl)oxy)pentyl)oxy)phenoxy)-N-((R)-1,2,3,4-tetrahydronaphthalen-1-yl)pyrrolidine-2-carboxamide]: the “IAP degradation profile (in words)” value in series [3] was “pronounced pan-IAP depletion”. In addition, the chromatographic logD in series [2] turned out to be 6.5. The remaining activity at 0.1 µM stood at 2% on XIAP (setting [4]), 95% at CRBN, 10% at cIAP1 (setting [5]) and 16% at cIAP2 (setting [6]). Besides, in the series on IKZF3 (16 h, 1 μM), the “IKZF3 degradation (in words)” value is given as “substantial IKZF3 degradation at 1 μM”. In addition, the “%remaining protein IKZF3” value in the series on IKZF3 worked out at 90%.
As for `CC[C@H](NC(=O)[C@H](C)NC)C(=O)N1C[C@@H](O)C[C@H]1Cc1c(-c2[nH]c3cc(F)ccc3c2C[C@@H]2C[C@H](O)CN2C(=O)[C@H](CC)NC(=O)[C@H](C)NC)[nH]c2cc(F)ccc12` [birinapant, reference compound], the “IAP degradation profile (in words)” value in [3] was “potent cIAP autodegradation”. For the same compound, the fraction unbound at 0.5 mg/mL in [1] was 0.05. In series [2], this compound registered a chromatographic logD of 3.4. Besides, the “cIAP2 degradation (in words)” value at cIAP2 (MM.1S cells, 16 h, western blot, 0.1 or 1 μM) was “substantial degradation”.
For “(2S,4S)-1-((S)-2-Cyclohexyl-2-((S)-2-(methylamino)propanamido)acetyl)-4-(3-((8-((2-(2,6-dioxopiperidin-3-yl)-1,3-dioxoisoindolin-4-yl)amino)octyl)oxy)phenoxy)-N-((R)-1,2,3,4-tetrahydronaphthalen-1-yl)pyrrolidine-2-carboxamide [PROTAC 21]”, the “logD (experimental partition coefficient, elog D7.4)” value in series [2] (pH 7.4, fast-gradient HPLC method) is 5.7. Further, on XIAP (setting [10]), the “%remaining protein XIAP” value was determined as 4%. The “%remaining protein CRBN” value on CRBN (setting [10]) was 90%. Besides, the “%remaining protein cIAP1” value on cIAP1 (setting [10]) amounted to 5%. The “%remaining protein cIAP2” value on cIAP2 (setting [10]) is on record as 14%. Also, the “%remaining protein IKZF3” value in the series on IKZF3 came out at 95%.
